Data as given in US20040019018A1, “Rigid pyrrolidone modulators of pkc” (priority 2003, published 2004).

Tests used:
[1] = system: LNCaP prostate cancer cells; experiment: Induction of apoptosis in LNCaP prostate cancer cells (DAPI staining); format: cell-based
Experimental: The capacity of inducing apoptosis by compound (1) was evaluated in a model of LNCaP prostate cancer cells. It is well established that in this model phorbol esters (e.g., PMA) activate PKC to induce apoptosis (reference 13). LNCaP cells were treated with compound (1) for 1 h, and apoptosis was assessed 24 h later.
Control cells or cells infected for 14 h with adenoviruses for LacZ, PKCα, or PKCδ (multiplicity of infection=10 pfu/cell) were treated with different concentrations of compound (1) or PMA for 1 h. Cells were collected 24 h later and stained with DAPI. The incidence of apoptosis in each preparation was analyzed by counting 500 cells and determining the percentage of apoptotic cells. Results are the mean±standard error of three independent experiments.
It is well established that PKCα and PKCδ are the isozymes that mediate phorbol ester-induced apoptosis in LNCaP cells (references 13c-e). A model that has been used to assess isozyme-specificity is the overexpression of specific PKCs by an adenoviral system. Infection of LNCaP cells with adenoviruses for PKCs leads to a high expression of the corresponding PKC isozyme, as determined by Western-blot analysis, kinase activity, or [^3H]PDBu binding (reference 13e).

[2] = system: PKC catalytic subunit; experiment: Translocation of PKC catalytic subunit to the membrane fraction in human fibroblasts (Western blot); format: cell-based; conditions: 15 min treatment, preliminary results
Experimental: A growing list of evidence implicated that protein kinase C (PKC) activation can increase the rate of the non-amyloidogenic, i.e. α-secretase processing in vitro.
Human fibroblasts were grown to confluence in 100 mm tissue culture dishes. On the day of the experiment, cells were rinsed twice with serum-free Dulbecco's modified Eagle's medium (DMEM) and incubated in the same medium for 2 hours. Cells were treated with the drugs above, or DMSO vehicle as control, for 15 min. The cells were then rinsed twice with ice-cold phosphate buffered saline (PBS), scraped in PBS, and collected by centrifugation. The pellets were suspended in homogenization buffer containing: 20 mM Tris-HCl, pH 7.5, 2 mM EDTA, 2 mM EGTA, 5 mM DTT, 0.32 M sucrose, 2 mM PMSF, […] aprotinin, and 20 µg/ml leupeptin. Homogenates were immersed in liquid nitrogen thawed, and centrifuged at 12,000 g for 20 min, and supernatants were used as the cytosolic fraction (C). The pellets were homogenized in the same buffer containing 1.0% Triton X-100, incubated on ice for 45 min, and centrifuged at 12,000 g for 30 min and the supernatants were used as the membrane fractions (M). After protein determination, equal amounts of proteins (approx. […]) were mixed with electrophoresis buffer, boiled for 5 min, and separated on 8% SDS-PAGE, and electrophoretically transferred to PVDF membranes. […]

[3] = molecular target: whole brain PKC; experiment: [3H]PDBu displacement from unresolved mixture of PKC isozymes from whole brain extracts; format: binding; conditions: [3H]PDBu competition
Experimental: The ability of representative compounds of the invention to bind specific isozymes of PKC was determined using an assay (Example 13) in which displacement of [20-^3H]phorbol -12,13-dibutyrate ([^3H]PDBu) from either recombinant PKC isozymes prepared in a Baculovirus system, or unresolved mixture of isozymes of PKC isolated from whole brain extracts, was used. These procedures are described below. As described in detail below, preferred compounds for neurological effects are those in which affinity for α, β and γ isozymes is the greatest (i.e. those having the lowest Ki) relative to other isozymes as such as the δ- and ε-isozymes shown in Table 1. […]
Analysis of [20-^3H]phorbol 12,13-dibutyrate binding to PKC. […] Phosphatidylserine and bovine […] were obtained from Sigma Chemical Co. Binding was determined in an incubation volume of 250 μl, containing [^3H]PDBu, PKC, 0.05 M Tris-Cl, pH 7.4, 100 μg/ml phosphatidylserine, various concentrations of the ligand being assayed for competition of [^3H]PDBu binding, and bovine […] at 1 mg/ml. […] [^3H]PDBu was used at a concentration twice the Kd previously determined for the specific receptor. […]
Specific binding represents the difference between total binding and the non-specific binding, where the latter value was calculated from the partition coefficient and the measured free [^3H]PDBu concentration in each tube. […]

Row | Compound | apoptotic effect in LNCaP cells ([1]; 1-30 μM, treated 1 h, apoptosis assessed 24 h later, FIG. 6A) | apoptotic effect with control adenovirus ([1]; LNCaP cells infected with LacZ adenovirus) | apoptotic response with overexpression of PKC isozymes ([1]; LNCaP cells infected with adenoviruses for PKCα or PKCδ) | translocation of PKC catalytic subunit from the cytosolic to the membrane fractions (activation) [2] | Ki [3]
1 | CCCCCCCCC#Cc1ccc2c(c1)C(C)(C(C)C)C1C(=O)NC(CO)C21 [Compound 1, (3S, 8R, 9S, 10S)-6-(dec-1′-ynyl)-3-hydroxymethyl-8-isopropyl-8-methyl-3,3a,8,8a-tetrahydro-2H-2-aza-cyclopenta[a]inden-1-one] | induces a dose-dependent apoptotic effect | did not affect the apoptotic effect | markedly potentiates the apoptotic response | able to cause the translocation | > 10 µM
2 | CCCCCCCCCCCC(=O)Oc1ccc2c(c1)[C@](C)(C(C)C)[C@H]1C(=O)N[C@H](CO)[C@@H]21 [Compound 2, (3S, 8R, 9S, 10S)-6-dodecanoyloxyl-3-hydroxymethyl-8-isopropyl-8-methyl-3,3a,8,8a-tetrahydro-2H -2-aza-cyclopenta[a]inden-1-one] | – | – | – | – | > 10 µM
